PMC11149917, “Translational and Therapeutic Evaluation of RAS-GTP Inhibition by RMC-6236 in RAS-Driven Cancers” (Cancer Discovery, 2024)

Columns and labels:
[1] = target: wild-type HRAS (Homo sapiens, UniProt P01112+P62937); assay: RAS-RAF TR-FRET; type: biochemical; conditions: 25 µmol/L CypA, read-out: EC50, disruption of RAF-RBD binding
[2] = system: caspase-3/7 in panel of 78 cancer cell lines; assay: Cell panel CaspaseGlo-3/7 apoptosis induction; type: cell-based, human
Protocol: A panel of 78 cancer cell lines harboring mutant and wild-type RAS was selected for screening at Crown Bioscience (Supplementary Table S2). The panel consisted of cell lines with any substitution at position 12 of KRAS, cell lines with any substitutions at position 61 of NRAS, and cell lines with a BRAF^V600E mutation. […] Cells were incubated for 120 hours prior to measurement of adenosine triphosphate (ATP) levels using the CellTiter-Glo Luminescent Cell Viability Assay (CTG; Promega, G7572), a method of determining the number of metabolically active cells based on quantitation of cellular ATP, according to the manufacturer's instructions. To measure induction of apoptosis, cells were incubated with RMC-6236 for 48 hours prior to measuring cleavage of a proluminescent caspase-3/7 DEVD-aminoluciferin substrate using the CaspaseGlo-3/7 Assay (Promega, G8092) according to the manufacturer’s instructions.

[3] = Tolerability by body weight change in xenograft studies; type: in vivo, mouse; conditions: repeated oral administration
Protocol: To generate subcutaneous CDX, each mouse was inoculated at the right flank with tumor cells (2 × 10^6 − 1 × 10^7) in 100 to 200 µL of media/PBS Supplemented with Matrigel. Treatments were initiated when average tumor volume reached 130 to 200 mm^3 for tumor growth evaluation and 350 to 650 mm^3 for single-dose pharmacokinetic/pharmacodynamic (PK/PD). Tumor diameter was measured in two dimensions using a digital caliper, and the tumor volume in mm^3 was calculated using the formula: Volume = ((width)^2 × length)/2. Mice in the study were weighed and tumors were measured twice weekly.
In tumor volume plots, the average tumor volume of each group was plotted over the course after implantation (except for PDX models, where the x-axis started on the first day of treatment). Control and RMC-6236 groups were compared by two-way repeated-measures ANOVA on the last measurement day of the control group. Percentage change in body weight for each animal on a given day was determined as [(body weight on test article administration end date/body weight on test article administration start date) −1] × 100. […] The mRECIST score was determined based on % mean tumor volume change, mCR is more than 80% regression, mPR is between 30% and 80% regression, mSD is between 30% growth and 30% regression, mPD is more than 30% growth. […]

Sequence of wild-type HRAS (P01112 1-169): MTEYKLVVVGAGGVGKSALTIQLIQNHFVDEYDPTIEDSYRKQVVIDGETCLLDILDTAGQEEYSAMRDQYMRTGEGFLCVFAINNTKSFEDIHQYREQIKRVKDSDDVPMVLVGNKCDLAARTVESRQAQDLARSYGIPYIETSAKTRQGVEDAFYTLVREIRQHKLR
Sequence of wild-type HRAS (P62937 whole entry): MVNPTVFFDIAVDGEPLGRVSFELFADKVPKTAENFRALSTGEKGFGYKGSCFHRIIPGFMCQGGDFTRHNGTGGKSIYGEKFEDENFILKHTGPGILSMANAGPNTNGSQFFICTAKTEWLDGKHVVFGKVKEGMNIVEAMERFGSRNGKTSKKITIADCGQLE

With `CCn1c(-c2cc(N3CCN(C)CC3)cnc2[C@H](C)OC)c2c3cc(ccc31)-c1csc(n1)C[C@H](NC(=O)[C@H]1C[C@@H]1C)C(=O)N1CCC[C@H](N1)C(=O)OCC(C)(C)C2` [RMC-6236] the EC50 [1] was 82 nM, the “Caspase-3/7 Activation (EC200, nM)” value ([2]; A375, BRAF V600E, Skin) was >100 nM and the “Caspase-3/7 Activation (EC200, nM)” value ([2]; A427, KRAS G12D, Lung) was >100 nM. For the same compound, the “Caspase-3/7 Activation (EC200, nM)” value ([2]; A549, KRAS G12S, Lung) was >100 nM, the “Caspase-3/7 Activation (EC200, nM)” value ([2]; AGS, KRAS G12D, Stomach) was >100 nM and the “Caspase-3/7 Activation (EC200, nM)” value ([2]; ASH3, NRAS Q61R, Head and Neck/Thyroid) was >100 nM. The “Caspase-3/7 Activation (EC200, nM)” value ([2]; ASPC1, KRAS G12D, Pancreas) was >100 nM, the “Caspase-3/7 Activation (EC200, nM)” value ([2]; CAL62, KRAS G12R, Head and Neck/Thyroid) was 39.7 nM and the “Caspase-3/7 Activation (EC200, nM)” value ([2]; CALU1, KRAS G12C, Lung) was 5.2 nM. The “Caspase-3/7 Activation (EC200, nM)” value ([2]; CAPAN1, KRAS G12V, Pancreas) was >100 nM, the “Caspase-3/7 Activation (EC200, nM)” value ([2]; CAPAN2, KRAS G12V, Pancreas) was >100 nM and the “Caspase-3/7 Activation (EC200, nM)” value ([2]; CFPAC1, KRAS G12V, Pancreas) was 20.2 nM. The “Caspase-3/7 Activation (EC200, nM)” value ([2]; CHP212, NRAS Q61K, Brain and Nerves) was >100 nM, the “Caspase-3/7 Activation (EC200, nM)” value ([2]; COC1, KRAS G12D, Ovary) was >100 nM and the “Caspase-3/7 Activation (EC200, nM)” value ([2]; COLO201, BRAF V600E, Intestine/Large/Colorectum) was >100 nM. The “Caspase-3/7 Activation (EC200, nM)” value ([2]; CORL23, KRAS G12V, Lung) was 32.2 nM, the “Caspase-3/7 Activation (EC200, nM)” value ([2]; HCC15, NRAS Q61K, Lung) was >100 nM and the “Caspase-3/7 Activation (EC200, nM)” value ([2]; HCC44, KRAS G12C, Lung) was >100 nM. The “Caspase-3/7 Activation (EC200, nM)” value ([2]; HEC1A, KRAS G12D, Uterus) was >100 nM, the “Caspase-3/7 Activation (EC200, nM)” value ([2]; HEPG2, NRAS Q61L, Liver) was 27.1 nM and the “Caspase-3/7 Activation (EC200, nM)” value ([2]; HM7, KRAS G12D, Intestine/Large/Colorectum) was >100 nM. The “Caspase-3/7 Activation (EC200, nM)” value ([2]; HPAC, KRAS G12D, Pancreas) was >100 nM, the “Caspase-3/7 Activation (EC200, nM)” value ([2]; HPAFII, KRAS G12D, Pancreas) was 29.6 nM and the “Caspase-3/7 Activation (EC200, nM)” value ([2]; HT1080, NRAS Q61K, Soft tissue) was 59.6 nM. The “Caspase-3/7 Activation (EC200, nM)” value ([2]; HUCCT1, KRAS G12D, Liver/Bile duct) was 46.2 nM, the “Caspase-3/7 Activation (EC200, nM)” value ([2]; HUPT4, KRAS G12V, Pancreas) was >100 nM and the “Caspase-3/7 Activation (EC200, nM)” value ([2]; KP4, KRAS G12D, Pancreas) was >100 nM. For the same compound, the “cell lines exhibiting at least a 2-fold increase in caspase activation” value ([2]; KRAS^G12X and NRAS^Q61X cell lines) was 40%, the “cell lines exhibiting at least a 2-fold increase in caspase activation” value ([2]; KRAS^G12X cell lines) was 28 out of 62 and the “Caspase-3/7 Activation (EC200, nM)” value ([2]; KYSE410, KRAS G12C, HN/Esophagus) was 19.5 nM. The “Caspase-3/7 Activation (EC200, nM)” value ([2]; LCLC97TM1, KRAS G12V, Lung) was 36.9 nM, the “Caspase-3/7 Activation (EC200, nM)” value ([2]; LS123, KRAS G12S, Intestine/Large/Colorectum) was >100 nM and the “Caspase-3/7 Activation (EC200, nM)” value ([2]; LS174T, KRAS G12D, Intestine/Large/Colorectum) was >100 nM. For the same compound, the “Caspase-3/7 Activation (EC200, nM)” value ([2]; LS180, KRAS G12D, Intestine/Large/Colorectum) was >100 nM, the “Caspase-3/7 Activation (EC200, nM)” value ([2]; LS513, KRAS G12D, Intestine/Large/Colorectum) was 11.0 nM and the “Caspase-3/7 Activation (EC200, nM)” value ([2]; MIAPACA2, KRAS G12C, Pancreas) was >100 nM. For the same compound, the “Caspase-3/7 Activation (EC200, nM)” value ([2]; NCIH23, KRAS G12C, Lung) was >100 nM, the “Caspase-3/7 Activation (EC200, nM)” value ([2]; NCIH358, KRAS G12C, Lung) was 29.7 nM and the “Caspase-3/7 Activation (EC200, nM)” value ([2]; NCIH441, KRAS G12V, Lung) was >100 nM. For the same compound, the “Caspase-3/7 Activation (EC200, nM)” value ([2]; NCIH727, KRAS G12V, Lung) was 11.9 nM, the “Caspase-3/7 Activation (EC200, nM)” value ([2]; NCIH1299, NRAS Q61K, Lung) was >100 nM and the “Caspase-3/7 Activation (EC200, nM)” value ([2]; NCIH1373, KRAS G12C, Lung) was 79.6 nM. The “Caspase-3/7 Activation (EC200, nM)” value ([2]; NCIH1792, KRAS G12C, Lung) was 6.6 nM, the “Caspase-3/7 Activation (EC200, nM)” value ([2]; NCIH2009, KRAS G12A, Lung) was 90.2 nM and the “Caspase-3/7 Activation (EC200, nM)” value ([2]; NCIH2087, NRAS Q61K, Lung) was 5.1 nM. For the same compound, the “Caspase-3/7 Activation (EC200, nM)” value ([2]; NCIH2122, KRAS G12C, Lung) was 57.5 nM, the “Caspase-3/7 Activation (EC200, nM)” value ([2]; NOZ, KRAS G12V, Liver/Bile duct) was 23.6 nM and the “cell lines exhibiting at least a 2-fold increase in caspase activation” value ([2]; NRAS^Q61X cell lines) was 5 out of 13. For the same compound, the “Caspase-3/7 Activation (EC200, nM)” value ([2]; OVCAR5, KRAS G12V, Ovary) was 2.4 nM, the “Caspase-3/7 Activation (EC200, nM)” value ([2]; PANC1, KRAS G12D, Pancreas) was >100 nM and the “Caspase-3/7 Activation (EC200, nM)” value ([2]; PANC0327, KRAS G12V, Pancreas) was >100 nM. For the same compound, the “Caspase-3/7 Activation (EC200, nM)” value ([2]; PANC0504, KRAS G12D, Pancreas) was 4.8 nM, the “Caspase-3/7 Activation (EC200, nM)” value ([2]; PANC1005, KRAS G12D, Pancreas) was 25.2 nM and the “Caspase-3/7 Activation (EC200, nM)” value ([2]; PL45, KRAS G12D, Pancreas) was 83.1 nM. The “Caspase-3/7 Activation (EC200, nM)” value ([2]; RBE, KRAS G12V, Liver/Bile duct) was >100 nM, the “Caspase-3/7 Activation (EC200, nM)” value ([2]; RKO*, BRAF V600E, Intestine/Large/Colorectum) was >100 nM and the “Caspase-3/7 Activation (EC200, nM)” value ([2]; SHP77, KRAS G12V, Lung) was >100 nM. The “Caspase-3/7 Activation (EC200, nM)” value ([2]; SKCO1, KRAS G12V, Intestine/Large/Colorectum) was 9.0 nM, the “Caspase-3/7 Activation (EC200, nM)” value ([2]; SKLU1, KRAS G12D, Lung) was 29.7 nM and the “Caspase-3/7 Activation (EC200, nM)” value ([2]; SKMEL2, NRAS Q61R, Skin) was 26.0 nM. For the same compound, the “Caspase-3/7 Activation (EC200, nM)” value ([2]; SKNAS, NRAS Q61K, Brain and Nerves) was >100 nM, the “Caspase-3/7 Activation (EC200, nM)” value ([2]; SKNSH, NRAS Q61K, Brain and Nerves) was >100 nM and the “Caspase-3/7 Activation (EC200, nM)” value ([2]; SNU1, KRAS G12D, Stomach) was >100 nM. The “Caspase-3/7 Activation (EC200, nM)” value ([2]; SNU387, NRAS Q61K, Liver) was >100 nM, the “Caspase-3/7 Activation (EC200, nM)” value ([2]; SNU601, KRAS G12D, Stomach) was 73.1 nM and the “Caspase-3/7 Activation (EC200, nM)” value ([2]; SNU719, NRAS Q61L, Stomach) was 57.7 nM. For the same compound, the “Caspase-3/7 Activation (EC200, nM)” value ([2]; SNUC2A, KRAS G12D, Intestine/Large/Colorectum) was >100 nM, the “Caspase-3/7 Activation (EC200, nM)” value ([2]; SU8686, KRAS G12D, Pancreas) was 61.9 nM and the “Caspase-3/7 Activation (EC200, nM)” value ([2]; SW403, KRAS G12V, Intestine/Large/Colorectum) was >100 nM. For the same compound, the “Caspase-3/7 Activation (EC200, nM)” value ([2]; SW480, KRAS G12V, Intestine/Large/Colorectum) was >100 nM, the “Caspase-3/7 Activation (EC200, nM)” value ([2]; SW620, KRAS G12V, Intestine/Large/Colorectum) was >100 nM and the “Caspase-3/7 Activation (EC200, nM)” value ([2]; SW626, KRAS G12V, Ovary) was >100 nM. For the same compound, the “Caspase-3/7 Activation (EC200, nM)” value ([2]; SW756, KRAS G12C, Ovary) was >100 nM, the “Caspase-3/7 Activation (EC200, nM)” value ([2]; SW837, KRAS G12C, Intestine/Large/Colorectum) was >100 nM and the “Caspase-3/7 Activation (EC200, nM)” value ([2]; SW900, KRAS G12V, Lung) was 3.2 nM. For the same compound, the “Caspase-3/7 Activation (EC200, nM)” value ([2]; SW1116, KRAS G12A, Intestine/Large/Colorectum) was >100 nM, the “Caspase-3/7 Activation (EC200, nM)” value ([2]; SW1271, NRAS Q61R, Lung) was >100 nM and the “Caspase-3/7 Activation (EC200, nM)” value ([2]; SW1463, KRAS G12C, Intestine/Large/Colorectum) was 28.5 nM. For the same compound, the “Caspase-3/7 Activation (EC200, nM)” value ([2]; SW1573, KRAS G12C, Lung) was >100 nM, the “Caspase-3/7 Activation (EC200, nM)” value ([2]; SW1990, KRAS G12D, Pancreas) was 97.1 nM and the “Caspase-3/7 Activation (EC200, nM)” value ([2]; UMUC3, KRAS G12C, Bladder) was 99.8 nM. The “Caspase-3/7 Activation (EC200, nM)” value ([2]; YCC2, KRAS G12S, Stomach) was >100 nM and the “tolerability assessed by body weight change” value [3] was “tolerated at all dose levels and in all preclinical models evaluated”.
